Data taken from patent US20090062397A1, “COMPOUNDS AND METHODS FOR ENHANCING SOLUBILITY OF FLORFENICOL AND STRUCTURALLY-RELATED ANTIBIOTICS USING CYCLODEXTRINS” (Schering-Plough Animal Health Corporation, priority 2007, published 2009).
In brackets after ≈: the same amount, converted by molar mass.

Columns and labels:
Type in all cases: physicochemical
[1] = Phase solubility study of FFC in Gamma-CD (Higuchi Connors)
Description: (§1) Phase solubility analysis is one of the methods used to determine a drug:CD binding constant and its consequences on the drug solubility have been extensively described in the literature by Higuchi and Connors. In such experiments, the solubility of a substance (S) is monitored with increases in the concentration of a ligand (L) (cyclodextrin in this case). The experiments are conducted in a series of tubes or vials containing the same volume of ligand solutions with increasing concentrations, except that one tube contains the solvent only. To each tube is added a known amount of the substance or drug, and the samples are equilibrated at constant temperature. The solution phase is then analyzed for the total substance concentration. If a soluble complex forms, the substance concentration should vary with increasing ligand concentration. The solubility behavior can be determined using a phase diagram by plotting the total substance concentration versus the total ligand concentration.
(§2) Florfenicol solubility in mixed solvents, such as water/PEG-300, and florfenicol complexes with beta cyclodextrin were evaluated by solubility studies using High Performance Liquid Chromatography (HPLC). The HPLC system consisted of a Waters Alliance Separation Module equipped with a Waters 2996 Photodiode Array Detector interfaced with Millennium Chromatography manager data software. The HPLC mobile phase consisted of acetonitrile and a 0.1% phosphoric acid aqueous solution (30:70 v/v). A Phenomenx®, Luna C8 5 micron column was used. The flow rate was 1.0 mL/min and the detection wavelength was 260 nm. Binding constants were calculated using the Higuchi Connors method from solubility study plots. The solubility of florfenicol in aqueous CD/PEG-300 systems was also investigated with the same technique.
(§3) In a first set of experiments, phase solubility studies were conducted for FFC in natural and modified cyclodextrins. The results of these studies are reported in Tables I, II, III, IV and V below, and the phase solubility diagrams are reported in FIGS. 5, 6, 7 and 8.

[2] = Solubility of FFC in aqueous Beta-CD/PEG-300 systems; details: for solubility: aqueous beta-cyclodextrin/PEG-300 system, aqueous with cosolvent or surfactant or cyclodextrin, thermodynamic from solid
Description: as §2
In a second set of experiments, the effects of different percentages of PEG-300 when used as a co-solvent were investigated in a FFC-cyclodextrin complex system.
The results obtained for the FEC-CD complex in the presence of different percentages of PEG-300 and different molar concentrations of cyclodextrin are reported in Tables VI and VII below.

[3] = Phase solubility study of FFC in Beta-CD (Higuchi Connors)
Description: as §1, §2, §3

[4] = Experimental water solubility of FFC (HPLC solubility study); details: thermodynamic from solid
Description: as §1, §2, §3

[5] = Phase solubility study of FFC in HP-Beta-CD (Higuchi Connors)
Description: as §1, §2, §3

[6] = Phase solubility study of FFC in Captisol (Higuchi Connors)
Description: as §1, §2, §3

In the case of CS(=O)(=O)c1ccc([C@@H](O)[C@@H](CF)NC(=O)C(Cl)Cl)cc1 (relative stereo) [FFC, [R-(R*,S*)]2,2-Dichloro-N-[1-(fluoromethyl)-2-hydroxy-2-[4-(methylsulfonyl)phenyl]-ethyl]acetamide], the “Average FFC” value ([1]; Gamma-CD 0.007 M) is reported as 2.51 mg/mL, the “Average FFC” value ([1]; Gamma-CD 0.014 M) is reported as 3.70 mg/mL and the “Average FFC” value ([1]; Gamma-CD 0.03 M) is reported as 5.24 mg/mL. The “Average FFC” value ([1]; Gamma-CD 0.06 M) was 8.20 mg/mL, the “Average FFC” value ([1]; Gamma-CD 0.11 M) was 10.77 mg/mL and the “calculated binding constant for FFC:Gamma-CD Complex” value ([1]; Gamma-CD, Higuchi Connors method) was 612.43 M⁻¹. For the same compound, the “solubility of FFC (change)” value ([2]; PEG-300 used as co-solvent for a FFC:cyclodextrin complex) was “greatly increased”, the solubility ([2]; 10 mM beta/3% PEG-300) was 7510 µg/mL (≈ 21 mM) and the solubility ([2]; 10 mM beta/10% PEG-300) was 6310 µg/mL (≈ 17.6 mM). The solubility ([2]; 10 mM beta/50% PEG-300) was 12300 µg/mL (≈ 34.3 mM), the solubility ([2]; 50 mM beta/20% PEG-300) was 10600 µg/mL (≈ 29.5 mM) and the solubility ([2]; 50 mM beta/30% PEG-300) was 14400 µg/mL (≈ 40.1 mM). For the same compound, the solubility ([2]; 50 mM beta/50% PEG-300) was 15500 µg/mL (≈ 43.3 mM), the “Average FFC” value ([3]; Beta-CD 0.006 M) was 4.03 mg/mL and the FFC ([3]; Beta-CD 0.006 M) was 10.45 µM. For the same compound, the “Average FFC” value ([3]; Beta-CD 0.01 M) was 5.91 mg/mL, the FFC ([3]; Beta-CD 0.01 M) was 15.3 µM and the “Average FFC” value ([3]; Beta-CD 0.02 M) was 9.79 mg/mL. The FFC ([3]; Beta-CD 0.02 M) was 25.4 µM, the “Average FFC” value ([3]; Beta-CD 0.05 M) was 15.59 mg/mL and the FFC ([3]; Beta-CD 0.05 M) was 40.4 µM. For the same compound, the “calculated binding constant for FFC:CD complex” value ([3]; Beta-CD, Higuchi Connors method) was 1429.57 M⁻¹, the solubility ([4]; Standard 1) was 1910 µg/mL (≈ 5.33 mM) and the solubility ([4]; Standard 2) was 1900 µg/mL (≈ 5.3 mM). For the same compound, the solubility ([4]; Standard 3) was 1950 µg/mL (≈ 5.44 mM), the “Average FFC” value ([5]; HP-Beta-CD 0.006 M) was 3.72 mg/mL and the “Average FFC” value ([5]; HP-Beta-CD 0.012 M) was 4.88 mg/mL. The “Average FFC” value ([5]; HP-Beta-CD 0.02 M) was 7.00 mg/mL, the “Average FFC” value ([5]; HP-Beta-CD 0.05 M) was 9.76 mg/mL and the “Average FFC” value ([5]; HP-Beta-CD 0.09 M) was 17.43 mg/mL. For the same compound, the “calculated binding constant for FFC:HP-CD complex” value ([5]; HP-Beta-CD, Higuchi Connors method) was 816.652 M⁻¹, the “Average FFC” value ([6]; Captisol 0.006 M) was 4.92 mg/mL and the FFC ([6]; Captisol 0.006 M) was 9.28 µM. The “Average FFC” value ([6]; Captisol 0.013 M) was 5.11 mg/mL, the FFC ([6]; Captisol 0.013 M) was 13.2 µM and the “Average FFC” value ([6]; Captisol 0.03 M) was 7.98 mg/mL. For the same compound, the “Average FFC” value ([6]; Captisol 0.05 M) was 13.17 mg/mL, the FFC ([6]; Captisol 0.05 M) was 34.1 µM and the “Average FFC” value ([6]; Captisol 0.10 M) was 19.18 mg/mL. The FFC ([6]; Captisol 0.10 M) was 49.7 µM and the “calculated binding constant for FFC:Captisol complex” value ([6]; Captisol, Higuchi Connors method) was 1020.92 M⁻¹.
